Assay results: patent US20090232838A1, “Ligands of melanocortin receptors” (priority 2005, published 2009)
Read-outs that look alike come from different tables or passages of the source. Where a SMILES comes first, the peptide text is derived from it. Bridges are numbered along the chain shown (N, C = ends). [ ]: non-standard residue; d: D form. 1Nal = N[C@@H](Cc1cccc2ccccc12)C(=O)O; 2Nal = N[C@@H](Cc1ccc2ccccc2c1)C(=O)O; d2Nal = N[C@H](Cc1ccc2ccccc2c1)C(=O)O; Bta = N[C@@H](Cc1csc2ccccc12)C(=O)O

Key:
Type in all cases: cell-based
[1] = target: T1, hMC4-R (Homo sapiens, UniProt P32245); experiment: cyclic AMP bioassay, hMC4-R
T1 construct: expressed in transfected cells; host or cells: CHO-K1
T1 sequence (P32245 whole entry): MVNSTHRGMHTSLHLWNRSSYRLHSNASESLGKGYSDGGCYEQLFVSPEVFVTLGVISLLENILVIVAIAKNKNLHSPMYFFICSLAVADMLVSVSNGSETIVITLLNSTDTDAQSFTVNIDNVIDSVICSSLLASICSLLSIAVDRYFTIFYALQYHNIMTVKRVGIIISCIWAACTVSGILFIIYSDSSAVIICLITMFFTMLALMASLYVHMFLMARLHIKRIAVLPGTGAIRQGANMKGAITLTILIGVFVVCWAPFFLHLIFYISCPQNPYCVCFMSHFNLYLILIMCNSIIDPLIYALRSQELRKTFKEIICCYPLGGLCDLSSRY

[2] = target: T2, hMC5-R (Homo sapiens, UniProt P33032); experiment: cyclic AMP bioassay, hMC5-R
T2 construct: expressed in transfected cells; host or cells: CHO-K1
T2 sequence (P33032 whole entry): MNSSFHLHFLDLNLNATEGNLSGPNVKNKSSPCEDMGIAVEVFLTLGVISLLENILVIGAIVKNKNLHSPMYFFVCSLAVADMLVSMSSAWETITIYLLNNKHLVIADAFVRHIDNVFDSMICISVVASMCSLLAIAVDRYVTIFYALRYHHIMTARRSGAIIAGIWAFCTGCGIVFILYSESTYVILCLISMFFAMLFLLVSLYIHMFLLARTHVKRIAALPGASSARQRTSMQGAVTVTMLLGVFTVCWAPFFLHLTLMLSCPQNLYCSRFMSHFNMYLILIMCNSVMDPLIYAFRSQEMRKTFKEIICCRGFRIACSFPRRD
Procedure: (§1) Intracellular cyclic AMP (cAMP) levels were determined by an electrochemiluminescence (ECL) assay (Meso Scale Discovery®, Gaithersburg, Md.; referred to hereinafter as MSD). […] Transgenic CHO-K1 cells stably expressing hMC receptor subtypes 1, 3, 4 or 5 were dispensed at a density of approximately 7,000 cells/well in 384-well Multi-Arrays plates (MSD) containing integrated carbon electrodes and coated with anti-CAMP antibody. Increasing concentrations of the test compounds were added and the cells were incubated for approximately 40 minutes at approximately 37° C. […] At the end of the second incubation period read buffer (Tris-buffered solution containing an ECL co-reactant and Triton X-100 at ph 7.8) was added and the cAMP levels in the cell lysates were immediately determined by ECL detection with a Sector Imager 6000 Reader® (MSD). Data were analyzed using a computer-assisted non-linear regression analysis (XL fit; IDBS) and reported as either an EC50 value or a Kb value.
(§2) The Kb value reflects the potency of an antagonist and is determined by Schild analysis. In brief, concentration-response curves of an agonist are carried out in the presence of increasing concentrations of an antagonist. […] It is calculated by extrapolating the line on a Schild plot to zero on the y-axis.

[3] = target: T3, hMC1-R (Homo sapiens, UniProt Q01726); experiment: cyclic AMP bioassay, hMC1-R
T3 construct: expressed in transfected cells; host or cells: CHO-K1
T3 sequence (Q01726 whole entry): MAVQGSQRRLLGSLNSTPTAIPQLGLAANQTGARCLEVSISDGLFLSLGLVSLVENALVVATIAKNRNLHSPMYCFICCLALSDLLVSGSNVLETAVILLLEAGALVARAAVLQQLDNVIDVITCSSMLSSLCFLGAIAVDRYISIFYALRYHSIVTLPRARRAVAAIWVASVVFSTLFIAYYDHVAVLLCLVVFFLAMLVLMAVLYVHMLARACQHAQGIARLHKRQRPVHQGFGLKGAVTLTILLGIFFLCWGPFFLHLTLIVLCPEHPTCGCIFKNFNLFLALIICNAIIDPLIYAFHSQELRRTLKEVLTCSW
Procedure: as §1, §2

[4] = target: T4, hMC3-R (Homo sapiens, UniProt P41968); experiment: cyclic AMP bioassay, hMC3-R
T4 construct: expressed in transfected cells; host or cells: CHO-K1
T4 sequence (P41968 whole entry): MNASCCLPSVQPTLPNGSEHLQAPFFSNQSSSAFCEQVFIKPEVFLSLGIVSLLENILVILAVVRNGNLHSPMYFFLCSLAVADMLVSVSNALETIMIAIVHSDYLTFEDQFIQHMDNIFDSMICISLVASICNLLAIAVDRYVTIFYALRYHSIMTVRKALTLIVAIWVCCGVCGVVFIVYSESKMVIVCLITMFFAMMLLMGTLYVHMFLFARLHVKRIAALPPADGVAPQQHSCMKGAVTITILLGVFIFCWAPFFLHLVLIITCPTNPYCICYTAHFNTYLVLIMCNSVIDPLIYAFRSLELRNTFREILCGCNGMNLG

[5] = Table 3A, cAMP in CHO-K1 cells, antagonist potency by Schild analysis, read-out: Kb hMC4-R
[6] = Table 3A, cAMP in CHO-K1 cells, agonist, read-out: EC50 hMC5-R
[7] = Table 3A, cAMP in CHO-K1 cells, agonist, read-out: EC50 hMC1-R
[8] = Table 3A, cAMP in CHO-K1 cells, antagonist potency by Schild analysis, read-out: Kb hMC3-R

SMILES | Kb [1, 5] [nM] | EC50 [2, 6] [nM] | EC50 [3, 7] [nM] | Kb [4, 8] [nM] | Kb [1] [nM] | EC50 [2] [nM] | EC50 [3] [nM] | Kb [4] [nM]
CCCC[C@H](NC(C)=O)C(=O)N[C@H]1CC(=O)NCCCC[C@@H](C(=O)NCCOCCOCC(=O)NCCOCCOCC(=O)N[C@@H](Cc2ccc(O)cc2)C(=O)NCC(=O)N[C@@H](CCCNC(=N)N)C(=O)N[C@@H](CCCCN)C(=O)N[C@@H](CCCCN)C(=O)N[C@@H](CCCNC(=N)N)C(=O)N[C@@H](CCCNC(=N)N)C(=O)N[C@@H](CCC(N)=O)C(=O)N[C@@H](CCCNC(=N)N)C(=O)N[C@@H](CCCNC(=N)N)C(=O)N[C@@H](CCCNC(=N)N)C(N)=O)NC(=O)[C@H](Cc2c[nH]c3ccccc23)NC(=O)[C@H](CCCNC(=N)N)NC(=O)[C@@H](Cc2ccc3ccccc3c2)NC(=O)[C@H](Cc2c[nH]cn2)NC1=O | 4.61 | 2.86 | 3.23 | 8.97 | – | – | – | –
CCCC[C@H](NC(C)=O)C(=O)N[C@H]1CC(=O)NCCCC[C@@H](C(=O)N2CCC[C@H]2C(=O)N2CCC[C@H]2C(=O)N[C@@H](CCCCN)C(=O)N[C@@H](CC(=O)O)C(=O)NCCOCCOCC(=O)N[C@@H](Cc2ccc(O)cc2)C(=O)NCC(=O)N[C@@H](CCCNC(=N)N)C(=O)N[C@@H](CCCCN)C(=O)N[C@@H](CCCCN)C(=O)N[C@@H](CCCNC(=N)N)C(=O)N[C@@H](CCCNC(=N)N)C(=O)N[C@@H](CCC(N)=O)C(=O)N[C@@H](CCCNC(=N)N)C(=O)N[C@@H](CCCNC(=N)N)C(=O)N[C@@H](CCCNC(=N)N)C(N)=O)NC(=O)[C@H](Cc2c[nH]c3ccccc23)NC(=O)[C@H](CCCNC(=N)N)NC(=O)[C@@H](Cc2ccc3ccccc3c2)NC(=O)[C@H](Cc2c[nH]cn2)NC1=O | 3.73 | 1.61 | 3.65 | 19.4 | – | – | – | –
CCCC[C@H](NC(C)=O)C(=O)N[C@H]1CC(=O)NCCCC[C@@H](C(=O)NCCC(=O)NCCC(=O)N[C@@H](Cc2ccc(O)cc2)C(=O)NCC(=O)N[C@@H](CCCNC(=N)N)C(=O)N[C@@H](CCCCN)C(=O)N[C@@H](CCCCN)C(=O)N[C@@H](CCCNC(=N)N)C(=O)N[C@@H](CCCNC(=N)N)C(=O)N[C@@H](CCC(N)=O)C(=O)N[C@@H](CCCNC(=N)N)C(=O)N[C@@H](CCCNC(=N)N)C(=O)N[C@@H](CCCNC(=N)N)C(N)=O)NC(=O)[C@H](Cc2c[nH]c3ccccc23)NC(=O)[C@H](CCCNC(=N)N)NC(=O)[C@@H](Cc2ccc3ccccc3c2)NC(=O)[C@H](Cc2c[nH]cn2)NC1=O | 7.94 | 0.839 | 1.39 | 16.2 | – | – | – | –
CC(=O)N[C@H]1CSSC[C@@H](C(=O)N2CCC[C@H]2C(=O)N2CCC[C@H]2C(=O)N[C@@H](CCCCN)C(=O)N[C@@H](CC(=O)O)C(=O)NCCC(=O)N[C@@H](Cc2ccc(O)cc2)C(=O)NCC(=O)N[C@@H](CCCNC(=N)N)C(=O)N[C@@H](CCCCN)C(=O)N[C@@H](CCCCN)C(=O)N[C@@H](CCCNC(=N)N)C(=O)N[C@@H](CCCNC(=N)N)C(=O)N[C@@H](CCC(N)=O)C(=O)N[C@@H](CCCNC(=N)N)C(=O)N[C@@H](CCCNC(=N)N)C(=O)N[C@@H](CCCNC(=N)N)C(N)=O)NC(=O)[C@H](C)NC(=O)[C@H](Cc2c[nH]c3ccccc23)NC(=O)[C@H](CCCNC(=N)N)NC(=O)[C@@H](Cc2ccc3ccccc3c2)NC(=O)[C@H](Cc2c[nH]cn2)NC(=O)[C@H](CCC(=O)O)NC1=O | 1.66 | 38.2 | 6.3 | 70 | – | – | – | –
CC(=O)N[C@H]1CSSC[C@@H](C(=O)N2CCC[C@H]2C(=O)N2CCC[C@H]2C(=O)N[C@@H](CCCCN)C(=O)N[C@@H](CC(=O)O)C(=O)NCCC(=O)N[C@@H](Cc2ccc(O)cc2)C(=O)NCC(=O)N[C@@H](CCCNC(=N)N)C(=O)N[C@@H](CCC(N)=O)C(=O)N[C@@H](CCCCN)C(=O)N[C@@H](CCCCN)C(=O)N[C@@H](CCCNC(=N)N)C(=O)N[C@@H](CCCNC(=N)N)C(=O)N[C@@H](CCCNC(=N)N)C(=O)N[C@@H](CCCNC(=N)N)C(=O)N[C@@H](CCCNC(=N)N)C(N)=O)NC(=O)[C@H](C)NC(=O)[C@H](Cc2c[nH]c3ccccc23)NC(=O)[C@H](CCCNC(=N)N)NC(=O)[C@@H](Cc2ccc3ccccc3c2)NC(=O)[C@H](Cc2c[nH]cn2)NC(=O)[C@H](CCC(=O)O)NC1=O | 9.38 | 54.2 | 12 | 13.7 | – | – | – | –
CC(=O)N[C@H]1CSSC[C@@H](C(=O)N2CCC[C@H]2C(=O)N2CCC[C@H]2C(=O)N[C@@H](CCCCN)C(=O)N[C@@H](CC(=O)O)C(=O)NCCC(=O)N[C@@H](Cc2ccc(O)cc2)C(=O)NCC(=O)N[C@@H](CCCNC(=N)N)C(=O)N[C@@H](CCCCN)C(=O)N[C@@H](CCCCN)C(=O)N[C@@H](CCCNC(=N)N)C(=O)N[C@@H](CCCNC(=N)N)C(=O)N[C@@H](CCCNC(=N)N)C(=O)N[C@@H](CCCNC(=N)N)C(=O)N[C@@H](CCC(N)=O)C(=O)N[C@@H](CCCNC(=N)N)C(N)=O)NC(=O)[C@H](C)NC(=O)[C@H](Cc2c[nH]c3ccccc23)NC(=O)[C@H](CCCNC(=N)N)NC(=O)[C@@H](Cc2ccc3ccccc3c2)NC(=O)[C@H](Cc2c[nH]cn2)NC(=O)[C@H](CCC(=O)O)NC1=O | 7.12 | 58.9 | 16.9 | 36 | – | – | – | –
CC(=O)N[C@H]1CSSC[C@@H](C(=O)N2CCC[C@H]2C(=O)N2CCC[C@H]2C(=O)N[C@@H](CCCCN)C(=O)N[C@@H](CC(=O)O)C(=O)NCCOCCOCC(=O)N[C@@H](Cc2ccc(O)cc2)C(=O)NCC(=O)N[C@@H](CCCNC(=N)N)C(=O)N[C@@H](CCCCN)C(=O)N[C@@H](CCCCN)C(=O)N[C@@H](CCCNC(=N)N)C(=O)N[C@@H](CCCNC(=N)N)C(=O)N[C@@H](CCC(N)=O)C(=O)N[C@@H](CCCNC(=N)N)C(=O)N[C@@H](CCCNC(=N)N)C(=O)N[C@@H](CCCNC(=N)N)C(N)=O)NC(=O)[C@H](C)NC(=O)[C@H](Cc2c[nH]c3ccccc23)NC(=O)[C@H](CCCNC(=N)N)NC(=O)[C@@H](Cc2ccc3ccccc3c2)NC(=O)[C@H](Cc2c[nH]cn2)NC(=O)[C@H](CCC(=O)O)NC1=O | 1.81 | 70 | 12.1 | 30.3 | – | – | – | –
CC(=O)N[C@H]1CSSC[C@@H](C(=O)N2CCC[C@H]2C(=O)N2CCC[C@H]2C(=O)N[C@@H](CCCCN)C(=O)N[C@@H](CC(=O)O)C(=O)NCCC(=O)N[C@@H](Cc2ccc(O)cc2)C(=O)NCC(=O)N[C@@H](CCCNC(=N)N)C(=O)N[C@@H](CCCCN)C(=O)N[C@@H](CCCCN)C(=O)N[C@@H](CCCNC(=N)N)C(=O)N[C@@H](CCCNC(=N)N)C(=O)N[C@@H](CCCNC(=N)N)C(=O)N[C@@H](CCC(N)=O)C(=O)N[C@@H](CCCNC(=N)N)C(=O)N[C@@H](CCCNC(=N)N)C(N)=O)NC(=O)[C@H](C)NC(=O)[C@H](Cc2c[nH]c3ccccc23)NC(=O)[C@H](CCCNC(=N)N)NC(=O)[C@@H](Cc2ccc3ccccc3c2)NC(=O)[C@H](Cc2c[nH]cn2)NC(=O)[C@H](CCC(=O)O)NC1=O | 7.31 | 44.2 | 16.4 | 20.8 | – | – | – | –
CC(=O)N[C@H]1CSSC[C@@H](C(=O)N2CCC[C@H]2C(=O)N2CCC[C@H]2C(=O)N[C@@H](CCCCN)C(=O)N[C@@H](CC(=O)O)C(N)=O)NC(=O)[C@H](C)NC(=O)[C@H](Cc2cccc3ccccc23)NC(=O)[C@H](CCCNC(=N)N)NC(=O)[C@@H](Cc2ccc3ccccc3c2)NC(=O)[C@H](Cc2c[nH]cn2)NC(=O)[C@H](CCC(=O)O)NC1=O [Ac-c(Cys-Glu-His-D-2-Nal-Arg-1-Nal-Ala-Cys)-Pro-Pro-Lys-Asp-NH2] (Ac-CEH[d2Nal]R[1Nal]ACPPKD-NH2; disulfide 1-8) | – | – | – | – | 5.92 | 104 | 269 | 105
CC(=O)N[C@H]1CSSC[C@@H](C(=O)N2CCC[C@H]2C(=O)N2CCC[C@H]2C(=O)N[C@@H](CCCCN)C(=O)N[C@@H](CC(=O)O)C(N)=O)NC(=O)[C@H](C)NC(=O)[C@H](Cc2ccc3ccccc3c2)NC(=O)[C@H](CCCNC(=N)N)NC(=O)[C@@H](Cc2ccc3ccccc3c2)NC(=O)[C@H](Cc2c[nH]cn2)NC(=O)[C@H](CCC(=O)O)NC1=O [Ac-c(Cys-Glu-His-D-2-Nal-Arg-2-Nal-Ala-Cys)-Pro-Pro-Lys-Asp-NH2] (Ac-CEH[d2Nal]R[2Nal]ACPPKD-NH2; disulfide 1-8) | – | – | – | – | 12.2 | 66.9 | 33.6 | 140
CC(=O)N[C@H]1CSSC[C@@H](C(=O)N2CCC[C@H]2C(=O)N2CCC[C@H]2C(=O)N[C@@H](CCCCN)C(=O)N[C@@H](CC(=O)O)C(N)=O)NC(=O)[C@H](C)NC(=O)[C@H](Cc2csc3ccccc23)NC(=O)[C@H](CCCNC(=N)N)NC(=O)[C@@H](Cc2ccc3ccccc3c2)NC(=O)[C@H](Cc2c[nH]cn2)NC(=O)[C@H](CCC(=O)O)NC1=O [Ac-c(Cys-Glu-His-D-2-Nal-Arg-Bal-Ala-Cys)-Pro-Pro-Lys-Asp-NH2] (Ac-CEH[d2Nal]R[Bta]ACPPKD-NH2; disulfide 1-8) | – | – | – | – | 4.56 | 177 | 690 | 70.7
CC(=O)N[C@H]1CSSC[C@@H](C(=O)N2CCC[C@H]2C(=O)N2CCC[C@H]2C(=O)N[C@@H](CCCCN)C(=O)N[C@@H](CC(=O)O)C(N)=O)NC(=O)[C@H](C)NC(=O)[C@H](Cc2c[nH]c3ccccc23)NC(=O)[C@H](CCCNC(=N)N)NC(=O)[C@@H](Cc2ccc3ccccc3c2)NC(=O)[C@H](Cc2c[nH]cn2)NC(=O)[C@H](CCC(=O)O)NC1=O [Ac-c(Cys-Glu-His-D-2-Nal-Arg-Trp-Ala-Cys)-Pro-Pro-Lys-Asp-NH2] (Ac-CEH[d2Nal]RWACPPKD-NH2; disulfide 1-8) | 0.687 | 6.84 | 66.1 | 33.4 | – | – | – | –
